The text below walks through data of US10576147B2, “Muramyl peptide derivative compound, synthesis and uses thereof” (BHARAT BIOTECH INTERNATIONAL LIMITED, priority 2015, dated 2020).

In data set [1] the test system is Peripheral blood mononuclear cells (PBMCs). Put plainly: In-vitro pyrogen test (IL-1β, IL-6, TNF-α by ELISA). It counts as cell-based. The protocol: Generally, pyrogenicity of any molecule can be measured by the over production of pro-inflammatory cytokines IL-1β, IL-6, and TNFα, following an activation of monocytes in-vitro, which inturn, could be an indicative of increased reactogenicity in-vivo.
Frozen Peripheral blood mononuclear cells (PBMCs) were revived and plated (0.5×10^6 cells/ml, 100 μl) in 96 well round bottom cell culture plate. Cells were supplemented with RPMI 1640 medium (Gibco Laboratories, Grand Island, N.Y.) containing fetal bovine serum (10%), glutamine (2 mM), and pencillin-streptomycin. Cells further stimulated with LPS (10 ng/ml) or endotoxin (1 EU/ml, 0.5 EU/ml, 0.25 EU/ml, 0.125 EU/ml) or MDP-MN (10 or 100 μg/ml). Cells stimulated with LPS or endotoxin was incubated for 4 hrs where as cells stimulated with MDP derivatives of the present invention kept for incubation in humidified CO2 chamber at 37° C. for 24 hrs. After stimulation, cell culture supernatant was collected and cytokines (such as IL-1β, IL-6 or TNF-α) were measured by ELISA. Concentrations each cytokine produced by PBMCs in the presence of reference standard endotoxin at 0.5 EU/ml was measured in triplicates. Threshold levels were calculated for each cytokine, using the cytokine levels produced by the reference standard endotoxin at 0.5 EU/ml (Marina et al., Vaccine 30 (2012) 4859-4865).
To determine Interleukin 1β, Enzyme Linked Immunosorbent Assay (ELISA) was performed according to the instruction manual (ebioscience, cat#88-7010). Briefly, capture antibody (cat#14-7018-67, eBioscience) was first diluted 1:250 using coating buffer and added 100 μL to each well in 96-well microplate. Plates were incubated overnight at 2-8° C. Coated plates were then washed with wash buffer (PBST). After washing, these plates were blocked using 1× assay diluent for 1 hr at room temperature followed by washing with PBST. A series of 2 fold dilutions were made from top standard ranging from 4 to 500 pg/mL, to make the standard curve. Similarly, 4 fold dilutions (1:4, 1:16 & 1:64) of cell supernatant obtained from PBMCs stimulation with MDP-MN were prepared. Aliquot (100 μL) of diluted standards or cell supernatants were added to well in duplicates and the plate was incubated at room temperature for 2 hrs. After washing the plate, 100 μL/well of detection antibody (cat#33-7016-67) diluted in 1× Assay diluent was added and incubated at room temperature for 1 hr. Later, 100 μL/well of Avidin-HRP* diluted in 1× Assay diluent was added and incubated at room temperature for 30 minutes. Finally, after washes, 100 μL of substrate solution was added to each well and incubated at RT for 15 minutes. Reaction was stopped by the addition of 50 μL of 2N H2SO4 to each well and the plate was read at 450 nm. […]
A general note: An ELISA detects its analyte on a solid surface through an enzyme-linked reagent.

Data set [2] deals with BALB/c mice. The experiment in a line: OVA-specific IgG after immunization (indirect ELISA). Format: in vivo. The settings on record: s.c. Days 1 and 15. On the procedure:
Male BALB/c mice were immunized subcutaneously with OVA 100 μg alone or with OVA 100 μg dissolved in saline containing analogues (7.5, 15 or 30 μg) on Days 1 and 15. Sera were collected 2 weeks after the last immunization. OVA-specific IgG antibodies in the sera were measured by an Indirect ELISA. The values are presented as log 2 titre.

The test system of data set [3] is Wistar rats. Put plainly: Maximum Tolerated Dose test. Format: in vivo, rat. The protocol:
Wistar rats (n=6, 3M & 3F) were administered intramuscularly (i.m) with MDP-MN containing fixed adjuvant dose of 10, 50 and 100 μg/animal/200 μl in an ascending manner. Animals were observed daily for a period of 14 days for clinical signs & mortality. Body weight was measured daily. Food and water consumed by animals were also monitored daily for any abnormalities & Food and water intake per animal was also calculated. Body temperature was measured for every 4 hours upto 24 hrs, later once in daily upto 7 days and then followed by alternate day upto day 14. Rats were sacrificed on day 14 and organs/tissues such as site of injection, spleen, thymus, brain, lungs, Heart, liver, Kidney were collected and done macroscopic examination. […] It indicates rats are tolerable even at high dose (100 μg/animal). Blood was collected between 24-36 hrs were tested for CRP levels, after the injection. […] Moreover, absence of pro-inflammatory cytokines, CRP levels indicates, MDP-MN is not pyrogenic.

The structures appear in SMILES notation.

Take `C[C@H](NC(=O)[C@@H](C)O[C@H]1[C@H](O)[C@@H](CO)OC(O)[C@@H]1NC(=O)[C@H](O)CO)C(=O)N[C@H](CCC(=O)O)C(N)=O` (stereo partly drawn) [MDP-MN, (4R)-5-amino-4-((2S)-2-((2R)-2-(((3R,4R,5S,6R)-3-((2,3-dihydroxypropanamido))-2,5-dihydroxy-6-(hydroxymethyl)tetrahydro-2H-pyran-4-yl)oxy)propanamido)propanamido)-5-oxopentanoic acid]: the “IL-1β level vs threshold” value in data set [1] (MDP-MN at both 10 & 100 μg/ml, 24 hrs, (endotoxin 0.5 EU/ml)) is reported as “within the threshold value”. For the same molecule, the “TNF-α level vs threshold” value in data set [1] (MDP-MN at both 10 & 100 μg/ml, 24 hrs, threshold 753 μg/ml) is on record as “within the threshold value”. In addition, the “IL-6 level vs threshold” value in data set [1] (MDP-MN at both 10 & 100 μg/ml, 24 hrs, threshold 3110 μg/ml) was “within the threshold value”. Moreover, the pyrogenicity entry in data set [1] (in-vitro pyrogen test) was “doesn't cause any pyrogenicity”. Also, the “Log(2) IgG Antibody Titre” value in data set [2] (adjuvant 7.5 μg per mouse with OVA 100 μg) is on record as “nearly equal antibody titer”; in data set [2] (adjuvant 15 μg per mouse with OVA 100 μg) it was “highest serum IgG responses”; in data set [2] (adjuvant 30 μg per mouse with OVA 100 μg) it was “highest serum IgG responses”. For the same molecule, the tolerated dose in data set [3] (Wistar rats, i.m., 14 days observation, highest dose tested) is listed as 100 μg/animal; in data set [3] (rat, Maximum Tolerated Dose test) it was not above 100 μg/rat. Moreover, in data set [3] (blood 24-36 hrs after injection, high dose (100 μg/animal), normal in rats 200-550 μg/ml), the CRP levels result is reported as “normal”. Besides, in data set [3] (day 14, site of injection, spleen, thymus, brain, lungs, heart, liver, kidney), the “macroscopic examination of organs/tissues” value is “No significant lesions or abnormalities”. Besides, in data set [3] (even at tested high dose (100 μg/animal), 14 days), the clinical signs entry is “no significant clinical signs”. In addition, in data set [3] (high dose (100 μg/animal), compared to untreated animals), the weight gain result is listed as “weight gain is less”. Further, in data set [3] (i.m. 10, 50 and 100 μg/animal, 14 days), the mortality result was “no mortality”. Besides, the “pyrogenicity (conclusion from cytokines and CRP levels)” value in data set [3] (rat, in vivo) was “not pyrogenic”. Moreover, in data set [3] (upto 14 days), the body temperature entry is recorded as “no temperature raise”.
